Measurements published in patent publication US11530244B2, “Cyclic polypeptides for PCSK9 inhibition” (priority 2018, dated 2022).
Starred links: 1 amine or outer side, 2 acyl side, 3 side chain; linkers in the order of their positions; H or OH if unused. Positions of bridges follow the written chain, without caps; N, C: chain ends. Non-standard residues stand in square brackets, D forms with d. Residues, ends and D or L forms follow the SMILES beside them. ξ: configuration not given here. Nle(6-ylidene) = O=C([C@H](CCCC=[*:3])N[*:1])[*:2]; X24 = O=C(CCCCSc1c(F)c(F)c(SCCN[*:1])c(F)c1F)[*:2]; X25 = O=C([C@H](Cc1cccc(OCC=[*:3])c1)N[*:1])[*:2]; Phe(4-COOH) = N[C@@H](Cc1ccc(C(=O)O)cc1)C(=O)O; Trp(5-F) = N[C@@H](Cc1c[nH]c2ccc(F)cc12)C(=O)O; X10 = O=C(CCSCc1ccc2ccc(CSCCN[*:1])cc2c1)[*:2]; dPro(cis-4-NH2) = N[C@H]1CN[C@@H](C(=O)O)C1; X16 = O=C([C@H](CCCCCC=[*:3])N[*:1])[*:2]; X12 = O=C([C@H](CCCCC=[*:3])N[*:1])[*:2]; X13 = O=C(CCCCc1cccc(CCCCN[*:1])c1)[*:2]; Dip = N[C@H](C(=O)O)C(c1ccccc1)c1ccccc1; Lys(N3) = [N-]=[N+]=NCCCC[C@H](N)C(=O)O; X4 = O=C(CCSCc1cccc(CSCCN[*:1])c1)[*:2]; Hag = O=C([C@H](CCC=[*:3])N[*:1])[*:2]; mXylylene = c1cc(C[*:1])cc(C[*:2])c1; AEF = NCCOc1ccc(C[C@H](N)C(=O)O)cc1; Glutaryl = O=C(CCCC(=O)[*:2])[*:1]; X21 = O=C(Cc1cccc(CN[*:2])c1)[*:1]; X39 = c1cc(CCSCN[*:2])cc(C[*:1])c1; X34 = O=C(CCC1CCN([*:1])CC1)[*:2]; X41 = O=C(Cc1ccc(N[*:1])cc1)[*:2]; X6 = O=C(Cc1ccc(CN[*:2])cc1)[*:1]; X7 = O=C(Cc1ccc(CN[*:1])cc1)[*:2]; Aad = N[C@@H](CCCC(=O)O)C(=O)O; hLys = NCCCCC[C@H](N)C(=O)O; αMeP = C[C@@]1(C(=O)O)CCCN1; Dab = NCC[C@H](N)C(=O)O; ξD = NC(CC(=O)O)C(=O)O; X2 = O=C(C[*:2])[*:1]; Mpa = O=C(O)CCS

Experiments:
PCSK9 = PCSK9 (Homo sapiens (Human), UniProt Q8NBP7); assay: PCSK9 Alexa FRET Standard assay (displacement of AlexaFluor647 tagged cyclic peptide Reagent A); format: binding; details: PCSK9 Alexa FRET Standard assay, 0.5 nM PCSK9, 20 nM AF cyclic peptide Reagent A; read-out: IC50
Sequence of PCSK9 (Q8NBP7 153-692): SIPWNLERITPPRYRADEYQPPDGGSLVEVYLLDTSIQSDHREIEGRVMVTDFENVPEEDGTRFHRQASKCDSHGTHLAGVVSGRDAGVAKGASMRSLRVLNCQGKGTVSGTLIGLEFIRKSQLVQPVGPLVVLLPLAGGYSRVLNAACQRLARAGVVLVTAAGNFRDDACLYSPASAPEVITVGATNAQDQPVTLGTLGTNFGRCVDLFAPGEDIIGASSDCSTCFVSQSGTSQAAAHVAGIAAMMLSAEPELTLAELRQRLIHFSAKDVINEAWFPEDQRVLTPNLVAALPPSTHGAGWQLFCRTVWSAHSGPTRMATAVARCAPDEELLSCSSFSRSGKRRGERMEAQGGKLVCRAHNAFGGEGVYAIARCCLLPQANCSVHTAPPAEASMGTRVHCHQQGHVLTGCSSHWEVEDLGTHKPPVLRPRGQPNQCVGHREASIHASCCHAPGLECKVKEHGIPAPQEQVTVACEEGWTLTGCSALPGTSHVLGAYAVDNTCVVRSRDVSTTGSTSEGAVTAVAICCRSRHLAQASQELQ
Method in brief: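 TR-FRET displacement: 0.5 nM biotinylated PCSK9 with 1.25 nM Strep-Eu and 20 nM AlexaFluor-tagged cyclic peptide (final) in 50 mM HEPES pH 7.4, 0.15 M NaCl, 5 mM CaCl2, 0.01% BSA, 0.01% P20, ≥2 h at room temperature. IC50 from sigmoidal fit, converted to Ki via peptide KD; falling Eu counts flagged false positives.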

[1] = target: human PCSK9 / human LDLR EGFa domain interaction (Homo sapiens (Human), UniProt Q8NBP7); assay: TR-FRET assay of inhibition of the PCSK9-LDLR protein-protein interaction; format: binding; details: TR-FRET, 20 nM human PCSK9, 20 nM human LDLR EGFa domain, 2 hours room temperature; read-out: IC50
Sequence of human PCSK9 / human LDLR EGFa domain interaction (Q8NBP7 153-692): as above
Sequence of human PCSK9 / human LDLR EGFa domain interaction (Q8NBP7 31-152 partner): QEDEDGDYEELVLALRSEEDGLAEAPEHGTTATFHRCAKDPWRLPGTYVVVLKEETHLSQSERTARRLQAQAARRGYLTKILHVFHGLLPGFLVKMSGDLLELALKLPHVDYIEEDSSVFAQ
Method in brief: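 Inhibition of PCSK9 binding to the LDLR EGFa domain, each protein at 20 nM, detected by TR-FRET using streptavidin and anti-His donor/acceptor labels (5 nM). Two-hour room-temperature incubation in calcium-containing HEPES buffer.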

Row | SMILES | IC50 (PCSK9) [nM] | IC50 [1] [nM]
1 | COc1ccc(C[C@@H]2NC(=O)[C@H](Cc3cnc[nH]3)NC(=O)[C@H](CC(=O)O)NC(=O)[C@H](Cc3c[nH]c4ccc(F)cc34)NC(=O)[C@H](Cc3c[nH]c4ccc(F)cc34)NC(=O)[C@@H](C)NC(=O)[C@H](CCCCN)NC(=O)[C@@H](NC(C)=O)CCCCCNC(=O)c3ccc(cc3)C[C@@H](C(N)=O)NC(=O)[C@]3(C)CCCN3C2=O)cc1 [Compound 393] (Ac-[hLys]K[dA][Trp(5-F)][Trp(5-F)]DHY(Me)[αMeP][Phe(4-COOH)]-NH2; lactam 1-10) | 100 to 1000 | 0.1 to 100
2 | COc1ccc(C[C@@H]2NC(=O)[C@H](Cc3cnc[nH]3)NC(=O)[C@H](CC(=O)O)NC(=O)[C@H](Cc3c[nH]c4ccc(F)cc34)NC(=O)[C@H](Cc3c[nH]c4ccc(F)cc34)NC(=O)[C@@H](C)NC(=O)[C@H](NC(C)=O)CCCCNC(=O)Cc3cccc(c3)CNC(=O)C[C@@H](C(N)=O)NC(=O)[C@]3(C)CCCN3C2=O)cc1 [Compound 394] (Ac-[dK][dA][Trp(5-F)][Trp(5-F)]DHY(Me)[αMeP]D-NH2; linker 1-9 via X21) | 100 to 1000 | 100 to 1000
3 | COc1ccc(C[C@@H]2NC(=O)[C@H](Cc3cnc[nH]3)NC(=O)[C@H](CC(=O)O)NC(=O)[C@H](Cc3c[nH]c4ccc(F)cc34)NC(=O)[C@H](Cc3c[nH]c4ccc(F)cc34)NC(=O)[C@H](C)NC(=O)[C@H](NC(C)=O)CCCc3cn(nn3)-c3ccc(cc3)C[C@@H](C(N)=O)NC(=O)[C@]3(C)CCCN3C2=O)cc1 [Compound 395] | 21000 to 50000 | 21000 to 50000
4 | COc1ccc(C[C@@H]2NC(=O)[C@H](Cc3cnc[nH]3)NC(=O)[C@H](CC(=O)O)NC(=O)[C@H](Cc3c[nH]c4ccc(F)cc34)NC(=O)[C@H](Cc3c[nH]c4ccc(F)cc34)NC(=O)[C@@H](C)NC(=O)[C@H](NC(C)=O)CCCCNC(=O)Cc3ccc(cc3)CNC(=O)C[C@@H](C(N)=O)NC(=O)[C@]3(C)CCCN3C2=O)cc1 [Compound 397] (Ac-[dK][dA][Trp(5-F)][Trp(5-F)]DHY(Me)[αMeP]D-NH2; linker 1-9 via X6) | 1000 to 12100 | 1000 to 12100
5 | COc1ccc(C[C@@H]2NC(=O)[C@H](Cc3cnc[nH]3)NC(=O)[C@H](CC(=O)O)NC(=O)[C@H](Cc3c[nH]c4ccc(F)cc34)NC(=O)[C@H](Cc3c[nH]c4ccc(F)cc34)NC(=O)[C@@H](C)NC(=O)CCCC(=O)NCCOc3ccc(cc3)C[C@@H](C(N)=O)NC(=O)[C@]3(C)CCCN3C2=O)cc1 [Compound 400] ([dA][Trp(5-F)][Trp(5-F)]DHY(Me)[αMeP][AEF]-NH2; linker N-8 via Glutaryl) | 1000 to 12100 | 100 to 1000
6 | COc1ccc(C[C@@H]2NC(=O)[C@H](Cc3cnc[nH]3)NC(=O)[C@H](CC(=O)O)NC(=O)[C@H](Cc3c[nH]c4ccc(F)cc34)NC(=O)[C@H](Cc3c[nH]c4ccc(F)cc34)NC(=O)[C@@H](C)NC(=O)Cc3ccc(cc3)NC(=O)CC(C(=O)O)NC(=O)[C@]3(C)CCCN3C2=O)cc1 (stereo partly drawn) [Compound 402] ([X41][dA][Trp(5-F)][Trp(5-F)]DHY(Me)[αMeP][ξD]-OH; lactam N-9) | 1000 to 12100 | 1000 to 12100
7 | COc1ccc(C[C@@H]2NC(=O)[C@H](Cc3cnc[nH]3)NC(=O)[C@H](CC(=O)O)NC(=O)[C@H](Cc3c[nH]c4ccc(F)cc34)NC(=O)[C@H](Cc3c[nH]c4ccc(F)cc34)NC(=O)[C@@H](C)NC(=O)Cc3ccc(cc3)CNC(=O)C[C@@H](C(N)=O)NC(=O)[C@]3(C)CCCN3C2=O)cc1 [Compound 403] ([X7][dA][Trp(5-F)][Trp(5-F)]DHY(Me)[αMeP]D-NH2; lactam N-9) | 1000 to 12100 | 100 to 1000
8 | COc1ccc(C[C@@H]2NC(=O)[C@H](Cc3cnc[nH]3)NC(=O)[C@H](CC(=O)O)NC(=O)[C@H](Cc3c[nH]c4ccc(F)cc34)NC(=O)[C@H](Cc3c[nH]c4ccc(F)cc34)NC(=O)[C@H](C)NC(=O)CCC3CCN(CC3)C(=O)[C@H](CC(N)=O)NC(=O)[C@]3(C)CCCN3C2=O)cc1 [Compound 404] (cyclo(A[Trp(5-F)][Trp(5-F)]DHY(Me)[αMeP]N[X34])) | 1000 to 12100 | 100 to 1000
9 | COc1ccc(C[C@@H]2NC(=O)[C@H](Cc3cnc[nH]3)NC(=O)[C@H](CC(=O)O)NC(=O)[C@H](Cc3c[nH]c4ccc(F)cc34)NC(=O)[C@H](Cc3c[nH]c4ccc(F)cc34)NC(=O)[C@@H](C)NC(=O)[C@H](CCCCN)NC(=O)CCSCc3ccc4ccc(cc4c3)CSCCNC(=O)[C@]3(C)CCCN3C2=O)cc1 [Compound 405] (cyclo(DHY(Me)[αMeP][X10]K[dA][Trp(5-F)][Trp(5-F)])) | 100 to 1000 | 0.1 to 100
10 | C[C@H]1NC(=O)[C@H](CCCCN)NC(=O)CCSCc2cccc(c2)CSCCNC(=O)[C@]2(C)CCCN2C(=O)[C@H](C(c2ccccc2)c2ccccc2)NC(=O)[C@H](Cc2cnc[nH]2)NC(=O)[C@H](CC(=O)O)NC(=O)[C@H](Cc2c[nH]c3ccc(F)cc23)NC(=O)[C@H](Cc2c[nH]c3ccc(F)cc23)NC1=O [Compound 406] (cyclo(DH[Dip][αMeP][X4]K[dA][Trp(5-F)][Trp(5-F)])) | 100 to 1000 | 0.1 to 100
11 | COc1ccc(C[C@@H]2NC(=O)[C@H](CCCC(=O)O)NC(=O)[C@H]3C[C@@H](N)CN3C(=O)[C@H](Cc3c[nH]c4ccc(F)cc34)NC(=O)[C@H](Cc3c[nH]c4ccc(F)cc34)NC(=O)[C@@H](C)NC(=O)[C@H](CCCCN=[N+]=[N-])NC(=O)CCSCc3cccc(c3)CCSCNC(=O)[C@]3(C)CCCN3C2=O)cc1 [Compound 408] ([Mpa][Lys(N3)][dA][Trp(5-F)][Trp(5-F)][dPro(cis-4-NH2)][Aad]Y(Me)[αMeP]; linker 1-C via X39) | 21000 to 50000 | 21000 to 50000
12 | COc1ccc(C[C@@H]2NC(=O)[C@H](Cc3cnc[nH]3)NC(=O)[C@H](CC(=O)O)NC(=O)[C@H](Cc3c[nH]c4ccc(F)cc34)NC(=O)[C@H](Cc3c[nH]c4ccc(F)cc34)NC(=O)[C@@H](C)NC(=O)[C@H](CCCCN)NC(=O)[C@@H](NC(C)=O)CCNC(=O)COc3ccc(cc3)C[C@@H](C(N)=O)NC(=O)[C@]3(C)CCCN3C2=O)cc1 [Compound 409] (Ac-[Dab]K[dA][Trp(5-F)][Trp(5-F)]DHY(Me)[αMeP]Y-NH2; linker 1-10 via X2) | 100 to 1000 | 0.1 to 100
13 | COc1ccc(C[C@@H]2NC(=O)[C@H](Cc3cnc[nH]3)NC(=O)[C@H](CC(=O)O)NC(=O)[C@H](Cc3c[nH]c4ccc(F)cc34)NC(=O)[C@H](Cc3c[nH]c4ccc(F)cc34)NC(=O)[C@@H](C)NC(=O)CCCCSc3c(F)c(F)c(c(F)c3F)SCCNC(=O)[C@]3(C)CCCN3C2=O)cc1 [Compound 483] (cyclo(DHY(Me)[αMeP][X24][dA][Trp(5-F)][Trp(5-F)])) | 0.11 to 100 | 0.1 to 100
14 | COc1ccc(C[C@@H]2NC(=O)[C@@H]3CC/C=C/CC[C@H](NC(=O)[C@H](Cc4c[nH]c5ccc(F)cc45)NC(=O)[C@H](Cc4c[nH]c5ccc(F)cc45)NC(=O)[C@@H](C)NC(=O)[C@H](CCCCN)NC(=O)CCSCc4cccc(c4)CSCCNC(=O)[C@]4(C)CCCN4C2=O)C(=O)N3)cc1 [Compound 493] | 1000 to 12100 | 1000 to 12100
15 | COc1ccc(C[C@@H]2NC(=O)[C@H]([C@@H](C)O)NC(=O)[C@@H]3CCC/C=C/COc4cccc(c4)C[C@H](NC(=O)[C@@H](C)NC(=O)[C@H](CCCCN)NC(=O)CCSCc4cccc(c4)CSCCNC(=O)[C@]4(C)CCCN4C2=O)C(=O)N[C@@H](Cc2c[nH]c4ccc(F)cc24)C(=O)N3)cc1 [Compound 494] (cyclo(K[dA][X25][Trp(5-F)][Nle(6-ylidene)]TY(Me)[αMeP][X4]); staple (E) 3-5) | 1000 to 12100 | 1000 to 12100
16 | COc1ccc(C[C@@H]2NC(=O)[C@H]([C@@H](C)O)NC(=O)[C@@H]3CCCC/C=C\CCCC[C@H](NC(=O)[C@@H](C)NC(=O)[C@H](C)NC(=O)CCSCc4cccc(c4)CSCCNC(=O)[C@]4(C)CCCN4C2=O)C(=O)N[C@@H](Cc2c[nH]c4ccc(F)cc24)C(=O)N3)cc1 [Compound 495] (cyclo(A[dA][X12][Trp(5-F)][X12]TY(Me)[αMeP][X4]); staple (Z) 3-5) | 0.11 to 100 | 100 to 1000
17 | COc1ccc(C[C@@H]2NC(=O)[C@H]([C@@H](C)O)NC(=O)[C@@H]3CCCCC/C=C/CC[C@H](NC(=O)[C@@H](C)NC(=O)[C@H](C)NC(=O)CCSCc4cccc(c4)CSCCNC(=O)[C@]4(C)CCCN4C2=O)C(=O)N[C@@H](Cc2c[nH]c4ccc(F)cc24)C(=O)N3)cc1 [Compound 496] (cyclo(A[dA][Hag][Trp(5-F)][X16]TY(Me)[αMeP][X4]); staple (E) 3-5) | 100 to 1000 | 100 to 1000
18 | COc1ccc(C[C@@H]2NC(=O)[C@H]([C@@H](C)O)NC(=O)[C@@H]3CSCc4cccc(c4)CSC[C@H](NC(=O)[C@@H](C)NC(=O)[C@H](C)NC(=O)CCCCc4cccc(c4)CCCCNC(=O)[C@@H]4CCCN4C2=O)C(=O)N[C@@H](Cc2c[nH]c4ccc(F)cc24)C(=O)N3)cc1 [Compound 497] (cyclo(A[dA]C[Trp(5-F)]CTY(Me)P[X13]); linker 3-5 via mXylylene) | 100 to 1000 | 100 to 1000
